{"source": "patent EP0101294B1", "about": "“Composition for protecting and healing gastro-duodenal mucosa and the liver of mammals” (THE REGENTS OF THE UNIVERSITY OF CALIFORNIA, priority 1982, dated 1984)", "format_in_all_cases": "in vivo, Spraque-Dawley rats", "key": {"liver": {"test_system": "liver", "assay": "Study 7: liver protection against ethanol, electron microscopy of hepatocytes", "details": "1 ml 120 mM AA (37 mg) in PL by gavage 1 hour before 2.5 ml 100% ethanol; sacrificed 24 hours later", "description": "40 rats were given, by gavage, either 1 ml of 5 mM PL solution (as a control) or a 1 ml of 120 mM arachidonic acid in the 5 mM PL solution. One hour later the rats were given 2.5 ml of 100% ethanol and the animals sacrificed 24 hours later.\nThe liver was then removed and specimens fixed for 2 hours in 3.5% purified glutaraldehyde (buffered in 0.1 M phosphate of 7.4). The liver specimens were washed with buffer and postfixed in 1% osmium tetroxide at 0°C for 1 hour. After dehydration with graded ethanol the tissue was embedded in epoxy resin. Silver gray thin sections of the specimen were double stained with 2% uranyl acetate followed by lead citrate and examined with an RCA electron microscope."}, "gastric mucosa [1]": {"test_system": "gastric mucosa", "assay": "Study 5: arachidonic acid mucosal protection against taurocholic acid", "details": "1 ml 120 mM AA in PL; 3 ml 80 mM TCA in 0.1 n HCl twice; 3 hours after second TCA dose", "description": "(§1) The animals used in the examples were Spraque-Dawley rats (225 to 250 grams bodyweight). Twenty-four hours prior to the experimentation the animals were fasted in wire-bottomed cages to prevent coprophagy.\nRats were given intragastric treatment by peroral tube with 1 ml of PL solution or 1 ml of PL solution containing 120 mM arachidonic acid (AA). The rats then received, intragastrically, 3 mls of a 80 mM solution of taurocholic acid (TCA) dissolved in 0.1 n in HCI, adminstered twice: one or two hours after PL or AA pretreatment. Animals were sacrificed 3 hours after second TCA administration.\nGastric mucosa was assessed macroscopically and histologically for damage in a similar manner as in studies with ethanol. […] These lesions corresponding histologically to necrotic lesions were similar to those seen after ethanol."}, "gastric mucosa [2]": {"test_system": "gastric mucosa", "assay": "Study 6: arachidonic and linoleic acid mucosal protection against acetylsalicylic acid", "details": "for Macroscopic mucosal changes (lesion index, number of lesions x severity): 1 ml 120 mM AA or 240 mM LLC in PL 1 hour before 200 mg/kg aspirin intragastrically, 4 hours after acetyl salicylic acid; for Histologic evaluation: deep necrotic lesions / Mucosa by scanning electromicroscopy: 4 hours after aspirin, 120 mM AA or 240 mM LLC pretreatment", "description": "as §1\nRats were given intragastric treatment by peroral tube with 1 ml of PL solution, 1 ml of PL solution containing 120 mM arachidonic acid (AA), or 1 ml of PL solution containing 240 mM linoleic acid (LLC). One hour after such treatment a suspension of 200 mg/kg bodyweight of aspirin in 0.1 n HCI containing 1% methyl cellulose was administered intragastrically in 1 ml volume. The animals were sacrified 4 hours after acetyl salicylic acid administration.\n• 1) Macroscopic quantitation of mucosal changes based on scoring system estimating presence or absence of hemorrhagic lesions, their number and severity graded on arbitrary scale 1 to 4. Lesion index, expressed as an average score (number of lesionsxseverity) was estimated per each group of animals. • 2) Mucosal histology • 3) Scanning electron microscopy"}, "gastric mucosa [3]": {"test_system": "gastric mucosa", "assay": "Study 1: arachidonic acid mucosal protection 3 hours after ethanol, computerized analysis of hemorrhagic area", "details": "percent of total glandular mucosal area", "description": "as §1\nAnimals were given by gavage 1 ml of either saline, or 5 mM PL solution in saline, or 1 ml of the PL-saline solution containing arachidonic acid in 30, 60 and 120 mM concentrations respectively. One-half hour or 1 hour later, 2 ml of absolute ethanol were instilled into the stomach by gavage. Three hours later the animals were sacrificed and their stomachs removed.\nA camera with 100 mm macro lens was used to photograph the mucosal surface of the stomach. The same type of film and identical conditions of specimen distance from the lens, light intensity and film development were used throughout the study. Color slides were evaluated by a computerized image analysis. Each slide was converted to a black-and-white video image consisting of 65,000 points. White represented normal gastric mucosa, while gray or black represented hemorrhagic changes. […] Absolute white was given a 255 value while absolute black was given a value of 0. Boundaries delineating the glandular mucosa were drawn on the digital video image with a sonic pen. All spatial and contrast information was stored on a magnetic disk. Each glandular mucosal area was classified interactively by slicing the spectrum of mucosal values into 2 or more subgroups and by displaying the resultant simplified digital image for verification with the more complex analog photographic input. Once a classification scheme was established, a spatial rendition of the picture's point was printed and plotted to scale on paper. A summary of the computer results was also printed and included boundary values for each gray-level slice and the absolute and relative areas of each class. The areas of hemorrhagic changes were expressed as the percentage of the entire gastric glandular mucosal area."}, "PGE2": {"test_system": "PGE2", "assay": "PGE2 measurement in gastric contents (radioimmunoassay, bioassay)", "description": "PGE2 was measured by direct radioimmunoassay using antisera generated in rabbits by immunization of PGE2 linked to bovine thyroglobulin. For additional confirmation of PGE2 measurements, samples were also subjected to bioassay. After addition of approximately 5000 CPM of ^3H-labeled PGE2 for recovery calculations, samples were adjusted to pH 4.3 with 0.5 M phosphate buffer and extracted twice with ethyl acetate. The organic layer was subjected to thin layer chromatography (benzene:dioxane:acetic acid, 90:60:3), and the PGE2 fraction was extracted with methanol, dried and reconstituted in 0.9% NaCl for assay. A bioassay cascade (according to Vane) was used to assay simultaneously the samples in 2 aliquot sizes and on 3 rat stomach strips. The concentration of PGE2 in the gastric contents were measured in 2 groups of rats 30 or 60 minutes following intragastric installation of 1 ml of 120 mM arachidonic acid or 1 ml PL in order to determine the extent of arachidonic acid conversion to PGE2 by the gastric mucosa. The spontaneous release of PGE2 into the gastric lumen was assessed in animals receiving PL pretreatment only. In addition, PGE2 concentration in the original 120 mM arachidonic acid solution was measured before intragastric instillation."}, "gastric mucosa [4]": {"test_system": "gastric mucosa", "assay": "Study 3: intragastric versus intrajejunal arachidonic acid, pylorus ligated, ethanol-induced gastric mucosal injury", "details": "1 hour before 2 ml ethanol, evaluated 2 hours after ethanol", "description": "as §1\nThe next series of experiments was designed to compare the effect of intragastric to intrajejunal pretreatment with arachidonic acid on ethanol-induced gastric mucosal injury. The animals were anesthetized with nembutal (50 mg nembutal per kg body weight intraperitoneally), their abdomens were opened and either 1 ml of 120 mM arachidonic acid or 5 mM PL was installed intragastrically or 1 ml of 120 mM arachidonic acid intrajejunally with a polyethylene catheter introduced through a small duodenal incision. The pylorus was ligated immediately after solution instillation. One hour later the gastric contents were removed and 2 ml of ethanol were instilled through the catheter. The stomach was examined 2 hours later.\nA camera with 100 mm macro lens was used to photograph the mucosal surface of the stomach. The same type of film and identical conditions of specimen distance from the lens, light intensity and film development were used throughout the study. Color slides were evaluated by a computerized image analysis. […] The areas of hemorrhagic changes were expressed as the percentage of the entire gastric glandular mucosal area."}, "gastric mucosa [5]": {"test_system": "gastric mucosa", "assay": "Scanning electron microscopy of gastric mucosa after ethanol", "details": "3 hours after ethanol, arachidonic acid pretreated rats", "excerpt": "Gastric mucosal specmens, fixed in 3.5% buffered glutaraldehyde were processed routinely for scanning electronmicroscopy and evaluated in a JOEL-35 scanning electronmicroscope operated at 20 kV."}, "gastric mucosa [6]": {"test_system": "gastric mucosa", "assay": "Histological studies of gastric mucosa (light microscopy)", "description": "Mucosal specimens 5 mm in width were cut from the forestomach to the pylorus. The specimens were obtained (a) 60 minutes after intragastric administration of 1 ml of solution containing either saline, PL or 120 mM arachidonic acid or (b) 3 hours after intragastric instillation of 2 ml of ethanol in animals which had received 1 ml of solution containing either saline or PL or 120 mM arachidonic acid 1 hour before ethanol. Specimens were fixed in buffered 10% formalin and stained. Coded specimens were examined \"blindly\" by light microscopy. In the histological evaluation special attention was paid to the continuity of the surface epithelium layer, presence or absence of hemorrhagic erosions, edema of the submucosa and infiltration with polymorphonuclear neutrophils."}, "gastric mucosa [7]": {"test_system": "gastric mucosa", "assay": "Study 2: arachidonic acid mucosal protection 15 hours after ethanol, computerized analysis of hemorrhagic area", "details": "1 ml 120 mM AA (37 mg) in PL intragastric 1 hour before 2 ml ethanol; evaluated 15 hours after ethanol; percent of total glandular mucosal area", "description": "as §1\nOne ml of 120 mM arachidonic acid solution (37 mg arachidonic acid) or 5 mM PI solution was instilled into the stomach 1 hour prior to the intragastric administration of 2 ml ethanol. The animals were killed 15 hours after ethanol administration and their stomachs were examined.\nA camera with 100 mm macro lens was used to photograph the mucosal surface of the stomach. The same type of film and identical conditions of specimen distance from the lens, light intensity and film development were used throughout the study. Color slides were evaluated by a computerized image analysis. Each slide was converted to a black-and-white video image consisting of 65,000 points. White represented normal gastric mucosa, while gray or black represented hemorrhagic changes. […] Absolute white was given a 255 value while absolute black was given a value of 0. Boundaries delineating the glandular mucosa were drawn on the digital video image with a sonic pen. All spatial and contrast information was stored on a magnetic disk. […] The areas of hemorrhagic changes were expressed as the percentage of the entire gastric glandular mucosal area."}, "gastric mucosa [8]": {"test_system": "gastric mucosa", "assay": "Study 4: linoleic acid mucosal protection against ethanol", "details": "3 hours after ethanol", "description": "Twenty-four hours prior to the experimentation the animals were fasted in wire-bottomed cages to prevent coprophagy.\nThe rats were given intragastric treatment by peroral tube 1 ml of PL solution; 1 ml of the PL solution containing 120 mM linoleic acid (LLC) or 240 mM LLC; or 1 ml of 240 mM oleic acid solubilized in 5 mM PL. […] Macroscopic and histologic mucosal changes were evaluated as in the studies with arachidonic acid."}, "[9]": {"details": "histology 3 hours after 2 ml absolute ethanol, pretreated with 1 ml 120 mM AA+PL 1 hour before"}, "[10]": {"details": "1 ml 240 mM in 5 mM PL intragastric pretreatment"}}, "note": "Marks after values point to notes of the source that are not given here.", "data": [{"smiles": "CCCCC/C=C\\C/C=C\\C/C=C\\C/C=C\\CCCC(=O)O", "note": "[AA, arachidonic acid]", "values": [{"measurement": "ultrastructural changes in the hepatocytes", "setting": "liver", "value": "most of the alcohol induced changes were virtually prevented"}, {"measurement": "mucosal lesions, macroscopically and histologically", "setting": "gastric mucosa [1]", "value": "not detectable"}, {"measurement": "Macroscopic mucosal changes (lesion index, number of lesions x severity)", "setting": "gastric mucosa [2]", "value": "2±0.3"}, {"measurement": "Histologic evaluation: deep necrotic lesions", "setting": "gastric mucosa [2]", "value": "deep necrotic lesions did not occur"}, {"measurement": "Mucosa by scanning electromicroscopy", "setting": "gastric mucosa [2]", "value": "nearly normal mucosa"}, {"measurement": "Hemorrhagic area*(%)", "setting": "gastric mucosa [3]; 1 ml 30 mM AA in 5 mM PL by gavage 1 hour before 2 ml ethanol, stomach evaluated 3 hours after ethanol", "value": 15.4, "unit": "%"}, {"measurement": "Hemorrhagic area*(%)", "setting": "gastric mucosa [3]; 1 ml 60 mM AA in 5 mM PL by gavage 1 hour before 2 ml ethanol, evaluated 3 hours after ethanol", "value": 3.0, "unit": "%"}, {"measurement": "Hemorrhagic area*(%)", "setting": "gastric mucosa [3]; 1 ml 120 mM AA in 5 mM PL by gavage 1 hour before 2 ml ethanol, evaluated 3 hours after ethanol", "value": 0.6, "unit": "%"}, {"measurement": "Hemorrhagic area*(%)", "setting": "gastric mucosa [3]; Group E: 1 ml 120 mM AA in 5 mM PL by gavage 30 minutes before 2 ml ethanol, evaluated 3 hours after ethanol", "value": 0.8, "unit": "%"}, {"measurement": "values of PGE2 in the gastric content higher than in animals that received PL only", "setting": "PGE2; 30 and 60 minutes after intragastric instillation, relative to PL group", "value": "5,000-13,000"}, {"measurement": "PGE2 concentration (ng/ml)", "setting": "PGE2; gastric contents 30 min after intragastric instillation of 1 ml 120 mM AA", "value": "7360.0* ng/ml"}, {"measurement": "PGE2 concentration (ng/ml)", "setting": "PGE2; gastric contents 60 min after intragastric instillation of 1 ml 120 mM AA", "value": "4100.0* ng/ml"}, {"measurement": "Hemorrhagic area*(%)", "setting": "gastric mucosa [4]; 1 ml 120 mM AA intragastrically", "value": 5.3, "unit": "%"}, {"measurement": "Hemorrhagic area*(%)", "setting": "gastric mucosa [4]; 1 ml 120 mM AA intrajejunally", "value": 28.1, "unit": "%"}, {"measurement": "Mucosal surface by scanning electronmicroscopy", "setting": "gastric mucosa [5]", "value": "nondisrupted and normal appearance"}, {"measurement": "Histological changes of gastric mucosa after the acid alone", "setting": "gastric mucosa [6]; 60 minutes after intragastric 1 ml 120 mM arachidonic acid, no ethanol", "value": "did not change the appearance of the gastric mucosa"}, {"measurement": "Edema of submucosa accumulation of polymorphonuclears", "setting": "gastric mucosa [6]; [9]", "value": "Present"}, {"measurement": "Hemorrhagic erosions", "setting": "gastric mucosa [6]; [9]", "value": "Absent"}, {"measurement": "The surface epithelium layer", "setting": "gastric mucosa [6]; [9]", "value": "Present, continuous (minor focal defects seen occasionally)"}, {"measurement": "Hemorrhagic area*(%)", "setting": "gastric mucosa [7]", "value": 0.6, "unit": "%"}]}, {"smiles": "CCCCC/C=C\\C/C=C\\CCCCCCCC(=O)O", "note": "[LLC, linoleic acid]", "values": [{"measurement": "Macroscopic mucosal changes (lesion index, number of lesions x severity)", "setting": "gastric mucosa [2]", "value": "8±1"}, {"measurement": "Histologic evaluation: deep necrotic lesions", "setting": "gastric mucosa [2]", "value": "deep necrotic lesions did not occur"}, {"measurement": "Mucosa by scanning electromicroscopy", "setting": "gastric mucosa [2]", "value": "nearly normal mucosa"}, {"measurement": "macroscopic hemorrhagic lesions, % of glandular mucosal area", "setting": "gastric mucosa [8]; 1 ml 120 mM in 5 mM PL intragastric pretreatment", "value": "6.5±1", "unit": "%"}, {"measurement": "macroscopic hemorrhagic lesions, % of glandular mucosal area", "setting": "gastric mucosa [8]; [10]", "value": "1.3±0.5", "unit": "%"}, {"measurement": "Mucosal histology: deep necrotic lesions", "setting": "gastric mucosa [8]", "value": "no deep necrotic lesions were present"}, {"measurement": "edema in the forestomach", "setting": "gastric mucosa [8]; macroscopic, group pretreated with linoleic acid", "value": "marked edema in the forestomach"}]}, {"smiles": "CCCCCCCC/C=C\\CCCCCCCC(=O)O", "note": "[oleic acid, reference compound]", "values": [{"measurement": "macroscopic hemorrhagic lesions, % of glandular mucosal area", "setting": "gastric mucosa [8]; [10]", "value": "29.1±3", "unit": "%"}, {"measurement": "Mucosal histology: deep necrotic lesions", "setting": "gastric mucosa [8]", "value": "deep hemorrhagic necrotic lesions penetrating into muscularis mucosa were present"}]}]}
